Results published in paper PMC9186362, “Design and biological evaluation of substituted 5,7-dihydro-6H-indolo[2,3-c]quinolin-6-one as novel selective Haspin inhibitors” (Journal of Enzyme Inhibition and Medicinal Chemistry, 2022).

Tests used:
Assay in all cases: SelectScreen ZLYTE
Format in all cases: biochemical
Conditions in all cases: ATP Km, read-out: Percentage of inhibition
SRC N1 = SRC N1 (Homo sapiens, UniProt P12931)
Method in brief: (§1)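 Single-point screen, 1 μM compound; % inhibition per kinase in a large profiling panel.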

TAOK2 (TAO1) = target: T1, TAOK2 (TAO1) (Homo sapiens, UniProt Q9UL54)
T1 construct: purchased Life Technologies
Method in brief: as §1

RPS6KA1 (RSK1) = target: T2, RPS6KA1 (RSK1) (Homo sapiens, UniProt Q15418)
T2 construct: purchased Life Technologies (SelectScreen service)
Method in brief: as §1

FLT3 = target: T3, FLT3 (Homo sapiens, UniProt P36888)
T3 construct: purchased Life Technologies
Method in brief: as §1

MARK1 (MARK) = target: T4, MARK1 (MARK) (Homo sapiens, UniProt Q9P0L2)
T4 construct: purchased Life Technologies (SelectScreen)
Method in brief: as §1

PAK7 (KIAA1264) = target: T5, PAK7 (KIAA1264) (Homo sapiens, UniProt Q9P286)
T5 construct: purchased Life Technologies (SelectScreen)
Method in brief: as §1

MAPK13 (p38 delta) = MAPK13 (p38 delta) (Homo sapiens, UniProt O15264)
Method in brief: as §1

ZAP70 = target: T6, ZAP70 (Homo sapiens, UniProt P43403)
T6 construct: purchased Life Technologies (SelectScreen Whole Panel)
Method in brief: as §1

EPHB3 = target: T7, EPHB3 (Homo sapiens, UniProt P54753)
T7 construct: purchased Life Technologies (SelectScreen Whole Panel)
Method in brief: as §1

ROCK1 = target: T8, ROCK1 (Homo sapiens, UniProt Q13464)
T8 construct: purchased Life Technologies (SelectScreen Whole Panel service)
Method in brief: as §1

ERBB4 (HER4) = ERBB4 (HER4) (Homo sapiens, UniProt Q15303)
Method in brief: as §1

PIM2 = target: T9, PIM2 (Homo sapiens, UniProt Q9P1W9)
T9 construct: purchased Life Technologies (SelectScreen Whole Panel service)
Method in brief: as §1

NIM1K = target: T10, NIM1K (Homo sapiens, UniProt Q8IY84)
T10 construct: purchased Life Technologies (SelectScreen)
Method in brief: as §1

PTK6 (Brk) = PTK6 (Brk) (Homo sapiens, UniProt Q13882)
Method in brief: as §1

ERBB2 (HER2) = target: T11, ERBB2 (HER2) (Homo sapiens, UniProt P04626)
T11 construct: purchased Life Technologies
Method in brief: as §1

PEAK1 = target: T12, PEAK1 (Homo sapiens, UniProt Q9H792)
T12 construct: purchased Life Technologies (SelectScreen Whole Panel)
Method in brief: as §1

IKBKE (IKK epsilon) = target: T13, IKBKE (IKK epsilon) (Homo sapiens, UniProt Q14164)
T13 construct: purchased Life Technologies (SelectScreen Whole Panel service)
Method in brief: as §1

FGFR3 K650E = target: T14, FGFR3 K650E (Homo sapiens, UniProt P22607, K650E)
T14 construct: purchased Life Technologies (SelectScreen Whole Panel service)
Method in brief: as §1

PDGFRA T674I = PDGFRA T674I (Homo sapiens, UniProt P16234, T674I)
Method in brief: as §1

PDGFRA (PDGFR alpha) = target: T15, PDGFRA (PDGFR alpha) (Homo sapiens, UniProt P16234)
T15 construct: purchased Life Technologies (SelectScreen Whole Panel service)
Method in brief: as §1

EGFR (ErbB1) G719S = target: T16, EGFR (ErbB1) G719S (Homo sapiens, UniProt P00533, G719S)
T16 construct: purchased Life Technologies (SelectScreen Whole Panel service)
Method in brief: as §1

RPS6KA2 (RSK3) = target: T17, RPS6KA2 (RSK3) (Homo sapiens, UniProt Q15349)
T17 construct: purchased Life Technologies (SelectScreen service)
Method in brief: as §1

STK4 (MST1) = target: T18, STK4 (MST1) (Homo sapiens, UniProt Q13043)
T18 construct: purchased Life Technologies (SelectScreen Whole Panel)
Method in brief: as §1

CSNK2A2 (CK2 alpha 2) = target: T19, CSNK2A2 (CK2 alpha 2) (Homo sapiens, UniProt P19784)
T19 construct: purchased Life Technologies (SelectScreen Whole Panel service)
Method in brief: as §1

CSNK1G3 (CK1 gamma 3) = target: T20, CSNK1G3 (CK1 gamma 3) (Homo sapiens, UniProt Q9Y6M4)
T20 construct: purchased Life Technologies
Method in brief: as §1

TBK1 = target: T21, TBK1 (Homo sapiens, UniProt Q9UHD2)
T21 construct: purchased Life Technologies (SelectScreen Whole Panel service)
Method in brief: as §1

MATK (HYL) = target: T22, MATK (HYL) (Homo sapiens, UniProt P42679)
T22 construct: purchased Life Technologies (SelectScreen Whole Panel service)
Method in brief: as §1

RPS6KA4 (MSK2) = target: T23, RPS6KA4 (MSK2) (Homo sapiens, UniProt O75676)
T23 construct: purchased Life Technologies
Method in brief: as §1

MAP3K19 (YSK4) = target: T24, MAP3K19 (YSK4) (Homo sapiens, UniProt Q56UN5)
T24 construct: purchased Life Technologies (SelectScreen Whole Panel)
Method in brief: as §1

EGFR (ErbB1) L858R = target: T25, EGFR (ErbB1) L858R (Homo sapiens, UniProt P00533, L858R)
T25 construct: purchased Life Technologies (SelectScreen Whole Panel)
Method in brief: as §1

DYRK1A = target: T26, DYRK1A (Homo sapiens, UniProt Q13627)
T26 construct: purchased Life Technologies
Method in brief: as §1

PRKD1 (PKC mu) = target: T27, PRKD1 (PKC mu) (Homo sapiens, UniProt Q15139)
T27 construct: purchased Life Technologies (SelectScreen Whole Panel service)
Method in brief: as §1

DNA-PK = target: T28, DNA-PK (Homo sapiens, UniProt P78527)
T28 construct: purchased Life Technologies (SelectScreen Whole Panel)
Method in brief: as §1

SGK2 = SGK2 (Homo sapiens, UniProt Q9HBY8)
Method in brief: as §1

CDC42 BPB (MRCKB) = target: T29, CDC42 BPB (MRCKB) (Homo sapiens, UniProt Q9Y5S2)
T29 construct: purchased Life Technologies (SelectScreen Whole Panel service)
Method in brief: as §1

AMPK (A1/B2/G2) = AMPK (A1/B2/G2) (Homo sapiens, UniProt Q13131)
Method in brief: as §1

RPS6KA3 (RSK2) = target: T30, RPS6KA3 (RSK2) (Homo sapiens, UniProt P51812)
T30 construct: purchased Life Technologies (SelectScreen service)
Method in brief: as §1

MST1R (RON) = MST1R (RON) (Homo sapiens, UniProt Q04912)
Method in brief: as §1

T18 sequence (Q13043 whole entry): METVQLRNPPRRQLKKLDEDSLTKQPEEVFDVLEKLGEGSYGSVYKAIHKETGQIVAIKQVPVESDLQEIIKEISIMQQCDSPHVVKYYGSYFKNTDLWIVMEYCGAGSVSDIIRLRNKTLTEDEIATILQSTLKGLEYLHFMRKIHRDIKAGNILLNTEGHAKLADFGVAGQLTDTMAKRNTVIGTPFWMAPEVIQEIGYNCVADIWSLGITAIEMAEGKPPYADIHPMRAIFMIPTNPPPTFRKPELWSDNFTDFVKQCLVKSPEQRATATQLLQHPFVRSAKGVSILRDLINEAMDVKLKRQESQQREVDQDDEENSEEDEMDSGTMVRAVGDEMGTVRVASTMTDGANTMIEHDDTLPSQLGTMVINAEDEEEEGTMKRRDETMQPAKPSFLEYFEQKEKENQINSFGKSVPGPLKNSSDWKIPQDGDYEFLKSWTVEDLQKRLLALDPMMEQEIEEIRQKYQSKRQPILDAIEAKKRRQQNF
T9 sequence (Q9P1W9 whole entry): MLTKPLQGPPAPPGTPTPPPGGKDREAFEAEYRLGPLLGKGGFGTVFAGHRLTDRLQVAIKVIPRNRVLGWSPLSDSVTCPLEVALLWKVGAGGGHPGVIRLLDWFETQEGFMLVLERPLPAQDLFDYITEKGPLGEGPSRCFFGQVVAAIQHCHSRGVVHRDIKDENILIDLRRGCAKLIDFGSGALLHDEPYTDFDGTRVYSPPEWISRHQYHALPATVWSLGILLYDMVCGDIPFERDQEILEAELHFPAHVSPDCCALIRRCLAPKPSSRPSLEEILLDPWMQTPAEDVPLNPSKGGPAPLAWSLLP
T5 sequence (Q9P286 whole entry): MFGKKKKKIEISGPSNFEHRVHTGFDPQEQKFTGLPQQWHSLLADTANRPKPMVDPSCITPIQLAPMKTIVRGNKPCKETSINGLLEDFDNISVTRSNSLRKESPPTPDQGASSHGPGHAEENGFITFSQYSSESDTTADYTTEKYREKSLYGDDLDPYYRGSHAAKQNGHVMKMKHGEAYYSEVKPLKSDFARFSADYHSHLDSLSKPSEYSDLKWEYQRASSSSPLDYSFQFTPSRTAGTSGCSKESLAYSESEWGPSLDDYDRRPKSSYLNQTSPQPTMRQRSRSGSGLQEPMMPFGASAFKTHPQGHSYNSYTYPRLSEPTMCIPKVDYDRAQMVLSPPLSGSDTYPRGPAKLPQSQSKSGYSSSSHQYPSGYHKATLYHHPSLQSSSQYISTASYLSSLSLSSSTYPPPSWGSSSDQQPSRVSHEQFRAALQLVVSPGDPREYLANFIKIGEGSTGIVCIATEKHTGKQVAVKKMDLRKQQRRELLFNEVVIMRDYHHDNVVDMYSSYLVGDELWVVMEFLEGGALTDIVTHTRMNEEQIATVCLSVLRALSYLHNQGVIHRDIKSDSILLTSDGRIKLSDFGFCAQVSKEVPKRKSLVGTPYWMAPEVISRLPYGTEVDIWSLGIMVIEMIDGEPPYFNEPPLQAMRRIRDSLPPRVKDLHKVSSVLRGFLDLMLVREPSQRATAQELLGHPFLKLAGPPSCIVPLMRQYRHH
T10 sequence (Q8IY84 whole entry): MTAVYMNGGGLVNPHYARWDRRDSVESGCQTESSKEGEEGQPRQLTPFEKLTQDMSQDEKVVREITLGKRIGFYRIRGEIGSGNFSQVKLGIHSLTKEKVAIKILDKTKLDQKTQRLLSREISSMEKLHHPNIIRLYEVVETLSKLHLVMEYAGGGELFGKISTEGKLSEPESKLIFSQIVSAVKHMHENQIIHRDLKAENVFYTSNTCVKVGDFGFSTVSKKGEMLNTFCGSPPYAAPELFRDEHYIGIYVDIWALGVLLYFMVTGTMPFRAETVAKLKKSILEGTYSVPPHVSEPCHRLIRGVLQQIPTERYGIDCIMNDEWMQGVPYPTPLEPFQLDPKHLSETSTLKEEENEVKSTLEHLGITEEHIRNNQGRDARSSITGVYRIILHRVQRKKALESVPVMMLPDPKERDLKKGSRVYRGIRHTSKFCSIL
T2 sequence (Q15418 whole entry): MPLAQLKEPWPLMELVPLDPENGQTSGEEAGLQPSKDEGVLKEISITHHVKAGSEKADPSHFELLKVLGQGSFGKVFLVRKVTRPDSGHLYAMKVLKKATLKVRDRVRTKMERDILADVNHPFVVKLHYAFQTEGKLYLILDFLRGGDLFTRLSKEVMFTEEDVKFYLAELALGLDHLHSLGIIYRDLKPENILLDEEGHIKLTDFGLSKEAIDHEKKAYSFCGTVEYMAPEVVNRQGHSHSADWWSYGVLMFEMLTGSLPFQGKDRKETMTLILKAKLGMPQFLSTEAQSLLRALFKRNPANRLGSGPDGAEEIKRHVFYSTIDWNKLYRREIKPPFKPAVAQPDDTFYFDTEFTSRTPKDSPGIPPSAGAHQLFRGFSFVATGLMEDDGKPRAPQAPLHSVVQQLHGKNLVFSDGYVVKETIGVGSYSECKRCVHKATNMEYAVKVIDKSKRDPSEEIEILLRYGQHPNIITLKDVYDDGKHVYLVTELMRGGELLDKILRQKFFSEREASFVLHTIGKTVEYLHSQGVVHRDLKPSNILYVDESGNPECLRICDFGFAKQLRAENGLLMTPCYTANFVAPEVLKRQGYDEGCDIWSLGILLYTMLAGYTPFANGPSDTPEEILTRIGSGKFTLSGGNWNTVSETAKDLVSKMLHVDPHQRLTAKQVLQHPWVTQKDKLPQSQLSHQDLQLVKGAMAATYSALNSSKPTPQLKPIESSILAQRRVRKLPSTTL
Sequence of ERBB4 (HER4) (Q15303 26-1308): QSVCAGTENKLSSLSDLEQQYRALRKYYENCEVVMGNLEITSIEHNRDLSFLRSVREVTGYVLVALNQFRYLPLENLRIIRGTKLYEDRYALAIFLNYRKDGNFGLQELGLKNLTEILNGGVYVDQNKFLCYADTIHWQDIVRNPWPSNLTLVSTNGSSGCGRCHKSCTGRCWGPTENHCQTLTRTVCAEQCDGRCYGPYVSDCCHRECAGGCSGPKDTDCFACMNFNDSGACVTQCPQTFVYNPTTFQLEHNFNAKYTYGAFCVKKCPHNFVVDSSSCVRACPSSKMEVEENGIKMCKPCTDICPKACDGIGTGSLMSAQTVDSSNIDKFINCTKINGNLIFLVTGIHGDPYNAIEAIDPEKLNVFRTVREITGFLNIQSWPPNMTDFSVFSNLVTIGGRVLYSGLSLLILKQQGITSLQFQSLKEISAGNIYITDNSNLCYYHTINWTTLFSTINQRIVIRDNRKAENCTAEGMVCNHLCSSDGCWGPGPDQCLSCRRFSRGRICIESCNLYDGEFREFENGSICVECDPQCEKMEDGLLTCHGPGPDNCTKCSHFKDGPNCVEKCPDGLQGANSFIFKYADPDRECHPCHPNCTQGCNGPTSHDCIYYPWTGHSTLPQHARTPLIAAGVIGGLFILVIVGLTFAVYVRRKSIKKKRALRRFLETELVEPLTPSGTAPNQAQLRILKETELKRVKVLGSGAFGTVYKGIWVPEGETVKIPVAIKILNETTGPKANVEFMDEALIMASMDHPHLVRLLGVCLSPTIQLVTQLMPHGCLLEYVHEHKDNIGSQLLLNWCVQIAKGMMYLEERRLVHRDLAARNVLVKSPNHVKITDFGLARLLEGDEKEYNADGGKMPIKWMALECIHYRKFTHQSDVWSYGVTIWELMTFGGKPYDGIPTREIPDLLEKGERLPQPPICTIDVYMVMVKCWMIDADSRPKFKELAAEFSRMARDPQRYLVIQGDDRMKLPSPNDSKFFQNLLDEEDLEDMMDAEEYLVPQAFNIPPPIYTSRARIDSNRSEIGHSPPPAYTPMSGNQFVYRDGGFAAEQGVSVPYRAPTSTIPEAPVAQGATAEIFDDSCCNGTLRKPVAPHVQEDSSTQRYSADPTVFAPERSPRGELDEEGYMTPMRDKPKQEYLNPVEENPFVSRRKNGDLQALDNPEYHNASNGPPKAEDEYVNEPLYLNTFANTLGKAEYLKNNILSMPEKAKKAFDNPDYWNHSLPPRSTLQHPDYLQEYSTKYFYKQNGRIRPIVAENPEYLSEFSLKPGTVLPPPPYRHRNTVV
T4 sequence (Q9P0L2 whole entry): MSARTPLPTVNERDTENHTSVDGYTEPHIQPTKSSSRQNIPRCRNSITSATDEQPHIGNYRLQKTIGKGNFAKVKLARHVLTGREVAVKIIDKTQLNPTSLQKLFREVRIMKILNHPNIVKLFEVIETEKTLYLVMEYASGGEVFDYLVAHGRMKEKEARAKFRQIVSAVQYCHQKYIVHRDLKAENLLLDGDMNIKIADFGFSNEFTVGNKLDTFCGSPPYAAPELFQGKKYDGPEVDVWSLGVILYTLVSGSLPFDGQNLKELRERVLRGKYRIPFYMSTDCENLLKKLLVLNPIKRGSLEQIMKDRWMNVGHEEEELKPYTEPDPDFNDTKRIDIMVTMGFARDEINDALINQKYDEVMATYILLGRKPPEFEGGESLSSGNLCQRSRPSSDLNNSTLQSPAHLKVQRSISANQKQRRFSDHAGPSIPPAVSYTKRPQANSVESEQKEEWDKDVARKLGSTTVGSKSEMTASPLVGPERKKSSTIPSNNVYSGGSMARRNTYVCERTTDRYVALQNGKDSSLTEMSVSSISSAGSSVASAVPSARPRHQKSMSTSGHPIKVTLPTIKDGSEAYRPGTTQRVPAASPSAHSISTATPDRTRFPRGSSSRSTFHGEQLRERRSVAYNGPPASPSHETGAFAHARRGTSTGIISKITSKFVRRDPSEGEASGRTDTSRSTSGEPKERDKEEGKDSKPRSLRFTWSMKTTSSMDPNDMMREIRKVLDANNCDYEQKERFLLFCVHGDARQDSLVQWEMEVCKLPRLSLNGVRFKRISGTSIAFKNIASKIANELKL

COc1ccc2[nH]c3c(=O)[nH]c4ccc(O)cc4c3c2c1 [Compound 55, 2-Hydroxy-10-methoxy-5,7-dihydro-6H-indolo[2,3-c]quinolin-6-one]
inhibition at 1 µM (SRC N1): 59% | inhibition at 1 µM (TAOK2 (TAO1)): 3% | inhibition at 1 µM (RPS6KA1 (RSK1)): 89% | inhibition at 1 µM (FLT3): 93% | inhibition at 1 µM (MARK1 (MARK)): 9% | inhibition at 1 µM (PAK7 (KIAA1264)): 8% | inhibition at 1 µM (MAPK13 (p38 delta)): 20% | inhibition at 1 µM (ZAP70): 0% | inhibition at 1 µM (EPHB3): -9% | inhibition at 1 µM (ROCK1): 11% | inhibition at 1 µM (ERBB4 (HER4)): 20% | inhibition at 1 µM (PIM2): 18% | inhibition at 1 µM (NIM1K): 9% | inhibition at 1 µM (PTK6 (Brk)): 19% | inhibition at 1 µM (ERBB2 (HER2)): 2% | inhibition at 1 µM (PEAK1): 50% | inhibition at 1 µM (IKBKE (IKK epsilon)): 17% | inhibition at 1 µM (FGFR3 K650E): 43% | inhibition at 1 µM (PDGFRA T674I): 6% | inhibition at 1 µM (PDGFRA (PDGFR alpha)): 43% | inhibition at 1 µM (EGFR (ErbB1) G719S): 11% | inhibition at 1 µM (RPS6KA2 (RSK3)): 88% | inhibition at 1 µM (STK4 (MST1)): 99% | inhibition at 1 µM (CSNK2A2 (CK2 alpha 2)): 17% | inhibition at 1 µM (CSNK1G3 (CK1 gamma 3)): 28% | inhibition at 1 µM (TBK1): 49% | inhibition at 1 µM (MATK (HYL)): 11% | inhibition at 1 µM (RPS6KA4 (MSK2)): 39% | inhibition at 1 µM (MAP3K19 (YSK4)): 49% | inhibition at 1 µM (EGFR (ErbB1) L858R): -1% | inhibition at 1 µM (DYRK1A): 96% | inhibition at 1 µM (PRKD1 (PKC mu)): 45% | inhibition at 1 µM (DNA-PK): 54% | inhibition at 1 µM (SGK2): 19% | inhibition at 1 µM (CDC42 BPB (MRCKB)): 10% | inhibition at 1 µM (AMPK (A1/B2/G2)): 67% | inhibition at 1 µM (RPS6KA3 (RSK2)): 83% | inhibition at 1 µM (MST1R (RON)): 6%
